What was measured:
Assay type in all cases: in vivo, human
[1] = tested on: patients with mild-to-moderate DLB; assay: AscenD-LB phase 2 study: International Shopping List Test (ISLT); conditions: patients with baseline plasma ptau181 <2.2 pg/mL, 16 weeks
Experimental: (§1) With the objective of uniformly achieving a target average plasma drug concentration of 20 nM patients, dosing regimen after randomization to neflamapimod or placebo was based on weight: • Weight<80 kg: 40 mg neflamapimod capsule or matching placebo capsule BID • Weight≥80 kg: 40 mg neflamapimod capsule or matching placebo capsule TID
(§2) As a result, efficacy analyses compared: (1) all neflamapimod (i.e., including 40 mg BID and 40 mg TID) vs. placebo; (2) 40 mg TID (dose group that achieved target concentration) vs. placebo; and (3) 40 mg TID vs. placebo TID.
(§3) Plasma ptau181 levels were determined by SIMOA pTau181 Assay (Quanterix) at the VU Medical Center, where the in-house defined cut-off for tau pathology was set at 2.2 pg/mL.

[2] = tested on: patients with mild-to-moderate DLB; assay: AscenD-LB phase 2 study: DLB specific Neuropsychological Test Battery (NTB) z-score
Experimental: as §1, §2, §3

[3] = tested on: patients with mild-to-moderate DLB; assay: AscenD-LB phase 2 study: Attention Composite z-score
Experimental: as §1, §2, §3

[4] = tested on: patients with mild-to-moderate DLB; assay: AscenD-LB phase 2 study: Clinical Dementia Rating Scale sum-of-boxes (CDR-SB)
Experimental: as §1, §2, §3

[5] = AscenD-LB phase 2 study: plasma drug concentration
Experimental: as §1
Trough plasma drug concentrations 50% lower with 40 mg BID vs. 40 mg TID

[6] = tested on: patients with mild-to-moderate DLB; assay: AscenD-LB phase 2 study: treatment effect by baseline plasma ptau181 status (all major endpoints)
Experimental: Up to half of patients with DLB have tau pathology, or “AD copathology” (van der Lee et al, 2021) and such co-pathology may impact response to cholinesterase inhibitors (Graff-Radford et al, 2012). In patients with DLB, plasma phospho-tau (either ptau217 or ptau181) correlates with tau-PET signal in the temporal cortex and predicts abnormal tau-PET status and CSF β-amyloid status (Hall et al, 2021). Accordingly, plasma ptau181 levels were assessed in plasma samples obtained during the screening phase of AscenD-LB. The results on the association of tau pathology to treatment outcome in AscenD-LB are described below.
as §3

[7] = tested on: patients with mild-to-moderate DLB; assay: AscenD-LB phase 2 study: Timed Up and Go (TUG) test
Experimental: as §1, §2, §3

[8] = 40 mg TID vs. placebo TID, baseline plasma ptau181 < 2.2 pg/mL
[9] = 40 mg TID vs. placebo, baseline plasma ptau181 < 2.2 pg/mL
[10] = all neflamapimod (40 mg BID and TID) vs. placebo, baseline plasma ptau181 < 2.2 pg/mL
[11] = overall population, 91-patient, 16-week study, main analysis
[12] = 40 mg TID vs. all placebo, patients with baseline plasma ptau181 <2.2 pg/mL, 16 weeks
[13] = 40 mg TID vs. placebo TID, patients with baseline plasma ptau181 <2.2 pg/mL, 16 weeks

O=c1ncn2nc(Sc3ccc(F)cc3F)ccc2c1-c1c(Cl)cccc1Cl [neflamapimod, 5-(2,6-dichlorophenyl)-2-(2,4-difluorophenylthio)-6H-pyrimido [1,6-b]pyridazin-6-one]
ISLD immediate recall, difference vs. placebo (LMMRM) ([1]; 40 mg TID vs. all placebo): 2.1 words | ISLD recognition, difference vs. placebo (LMMRM) ([1]; 40 mg TID vs. all placebo): 1.4 words | ISLD immediate recall, difference vs. placebo TID (LMMRM) ([1]; 40 mg TID vs. placebo TID): 2.3 words | ISLD recognition, difference vs. placebo TID (LMMRM) ([1]; 40 mg TID vs. placebo TID): 0.9 words | NTB z-score, difference vs. placebo (LMMRM) ([2]; 40 mg TID vs. all placebo, patients with baseline plasma ptau181 <2.2 pg/mL, 16 weeks, not significant): 0.21 | NTB, Effect size, improvement in neflamapimod 40 mg TID vs. placebo TID [2, 8]: 0.61 | NTB z-score, difference vs. placebo TID (LMMRM) ([2]; 40 mg TID vs. placebo TID, patients with baseline plasma ptau181 <2.2 pg/mL, 16 weeks, not significant): 0.25 | NTB, Effect size, improvement in neflamapimod 40 mg TID vs. placebo [2, 9]: 0.56 | NTB, Effect size, improvement in all neflamapimod vs. placebo [2, 10]: 0.15 | cognition assessed by NTB, relative to placebo [2, 11]: significant improvement | attention composite z-score, difference vs. placebo (LMMRM) [3, 12]: 0.42 z-score | Attention, Effect size, improvement in neflamapimod 40 mg TID vs. placebo TID [3, 8]: 0.70 | attention composite z-score, difference vs. placebo TID (LMMRM) [3, 13]: 0.46 z-score | Attention, Effect size, improvement in neflamapimod 40 mg TID vs. placebo [3, 9]: 0.78 | Attention, Effect size, improvement in all neflamapimod vs. placebo [3, 10]: 0.29 | CDR-SB, difference vs. placebo (LMMRM) [4, 12]: −0.60 points | CDR-SB, Effect size, improvement in neflamapimod 40 mg TID vs. placebo TID [4, 8]: 0.98 | CDR-SB, difference vs. placebo TID (LMMRM) [4, 13]: −0.93 points | CDR-SB, Effect size, improvement in neflamapimod 40 mg TID vs. placebo [4, 9]: 0.70 | CDR-SB, Effect size, improvement in all neflamapimod vs. placebo [4, 10]: 0.58 | cognition and function assessed by CDR-SB, relative to placebo [4, 11]: significant improvement | shortfall from target average plasma drug concentration (20 nM) ([5]; 40 mg BID (weight <80 kg)): 30-40% | trough plasma drug concentrations, lower with 40 mg BID vs. 40 mg TID ([5]; 40 mg BID vs. 40 mg TID): 50% | attainment of target average plasma drug concentration (20 nM) ([5]; 40 mg TID (weight ≥80 kg)): achieved target plasma drug concentration | treatment effect on NTB z-score, attention z-score, TUG, CDR-SB (descriptive evaluation) ([6]; patients below the threshold (2.2 pg/mL) for having tau pathology): positive treatment effects | treatment effect on NTB z-score, attention z-score, TUG, CDR-SB (descriptive evaluation) ([6]; patients with baseline plasma ptau181 above the threshold (2.2 pg/mL), i.e. with tau pathology): no discernible treatment effect | magnitude of treatment effect relative to placebo for the individual endpoints, ptau181 <2.2 pg/mL population compared to overall population ([6]; plasma ptau181 <2.2 pg/mL at baseline vs. overall population): 1.5 to 2.0 fold | TUG, difference vs. placebo (LMMRM) [7, 12]: -3.1 s | Timed up and Go, Effect size, improvement in neflamapimod 40 mg TID vs. placebo TID [7, 8]: 0.70 | TUG, difference vs. placebo TID (LMMRM) [7, 13]: -3.5 s | Timed up and Go, Effect size, improvement in neflamapimod 40 mg TID vs. placebo [7, 9]: 0.74 | Timed up and Go, Effect size, improvement in all neflamapimod vs. placebo [7, 10]: 0.40 | motor function assessed by TUG test, relative to placebo [7, 11]: significant improvement

Source: patent publication US20250387399A1, “TREATMENT OF A SELECTIVE POPULATION OF PATIENTS HAVING DEMENTIA WITH LEWY BODIES” (EIP Pharma, LLC, priority 2021, published 2025)
